The text below walks through data of US20220267352A1, “RAPAMYCIN ANALOGS AND USES THEREOF” (Anakuria Therapeutics, Inc., priority 2021, published 2022).

Where only a bound is given, the exact number is not on record here.

In one test the test system is p-p70 S6 Kinase (Thr389) in MCF-7 cells. The test is described as follows: AlphaLISA Ultra pS6K1 assay. The class given is cell-based. Conditions: Homo sapiens, 1.5 h; MCF7 cells, 90 min. The protocol: Example 55: AlphaLISA Ultra pS6K1 Assay
(§1) Assay Protocol: • 1. Seed MCF-7 cells in Corning 3701 plate and incubate for 20˜24 hour. 12,000˜16,000 cells will be seeded in 36 μL medium per well. • 2. Change the culture medium with fresh medium and incubate for another 2 hours. • 3. Add 12 μL (4×) compounds into the cell plate by HAMILTON. Final DMSO concentration is 0.5%. Incubate for 90 minutes. • 4. Aspirate 38 μL by HAMILTON, 10 μL rest per well. • 5. Add 10 μL 2× lysis buffer using HAMILTON; total volume in wells is 20 μL. Allow cells to shake for 30 min. Cover plate by plastic foil and store plate at −80° C. up to analysis. • 6. Thaw cell lysate at RT and transfer 10 μL lysate to assay plate (Optiplate-384). • 7. Add 5 μL acceptor beads into assay plate and incubation for 2 hours • 8. Add 5 μL donor beads and incubation for 2 hours • 9. Count the plate by EnSpire Multimode Plate Reader
A general note: Alpha assays give light when donor and acceptor beads are brought close together.
The IC50 is the point on the concentration scale where inhibition reaches its midpoint. Lower therefore signals greater potency in that assay. `CO[C@@H]1C[C@H](C[C@@H](C)[C@@H]2CC(=O)[C@H](C)/C=C(\C)[C@@H](O)[C@@H](OC)C(=O)[C@H](C)C[C@H](C)/C=C/C=C/C=C(\C)[C@H](OCCOC3COC3)C[C@@H]3CC[C@@H](C)[C@@](O)(O3)C(=O)C(=O)N3CCCC[C@H]3C(=O)O2)CC[C@H]1O` [I-71, (1R,9S,12S,15R,16E,18R,19R,21R,23S,24E,26E,28E,30R,32S,35R)-1,18-dihydroxy-12-[(1R)-2-[(1S,3R,4R)-4-hydroxy-3-methoxy-cyclohexyl]-1-methyl-ethyl]-19-methoxy-15,17,21,23,29,35-hexamethyl-30-[2-(oxetan-3-yloxy)ethoxy]-11,36-dioxa-4-azatricyclo[30.3.1.0^4,9]hexatriaconta-16,24,26,28-tetraene-2,3,10,14,20-pentone] returned an IC50 of 1 to 10 nM. As for `COCCO[C@@H]1CC[C@@H](C[C@@H](C)[C@@H]2CC(=O)[C@H](C)/C=C(\C)[C@@H](O)[C@@H](OC)C(=O)[C@H](C)C[C@H](C)/C=C/C=C/C=C(\C)[C@H](OC[C@H]3COCCO3)C[C@@H]3CC[C@@H](C)[C@@](O)(O3)C(=O)C(=O)N3CCCC[C@H]3C(=O)O2)C[C@H]1OC` [I-63, (1R,9S,12S,15R,16E,18R,19R,21R,23S,24E,26E,28E,30R,32S,35R)-30-[[(2R)-1,4-dioxan-2-yl]methoxy]-1,18-dihydroxy-19-methoxy-12-[(1R)-2-[(1S,3R,4R)-3-methoxy-4-(2-methoxyethoxy)cyclohexyl]-1-methyl-ethyl]-15,17,21,23,29,35-hexamethyl-11,36-dioxa-4-azatricyclo[30.3.1.0^4,9]hexatriaconta-16,24,26,28-tetraene-2,3,10,14,20-pentone], the IC50 lay in the range of 1 to 10 nM. The compound `CO[C@@H]1C[C@H](C[C@@H](C)[C@@H]2CC(=O)[C@H](C)/C=C(\C)[C@@H](O)[C@@H](OC)C(=O)[C@H](C)C[C@H](C)/C=C/C=C/C=C(\C)[C@@H](OCCOC3COC3)C[C@@H]3CC[C@@H](C)[C@@](O)(O3)C(=O)C(=O)N3CCCC[C@H]3C(=O)O2)CC[C@H]1O` [I-72, (1R,9S,12S,15R,16E,18R,19R,21R,23S,24E,26E,28E,30S,32S,35R)-1,18-dihydroxy-12-[(1R)-2-[(1S,3R,4R)-4-hydroxy-3-methoxy-cyclohexyl]-1-methyl-ethyl]-19-methoxy-15,17,21,23,29,35-hexamethyl-30-[2-(oxetan-3-yloxy)ethoxy]-11,36-dioxa-4-azatricyclo[30.3.1.0^4,9]hexatriaconta-16,24,26,28-tetraene-2,3,10,14,20-pentone] had an IC50 of under 1 nM. Compound `COCCO[C@@H]1CC[C@@H](C[C@@H](C)[C@@H]2CC(=O)[C@H](C)/C=C(\C)[C@@H](O)[C@@H](OC)C(=O)[C@H](C)C[C@H](C)/C=C/C=C/C=C(\C)C(OCc3cnccn3)C[C@@H]3CC[C@@H](C)[C@@](O)(O3)C(=O)C(=O)N3CCCC[C@H]3C(=O)O2)C[C@H]1OC` (stereo partly drawn) [I-68, (1R,9S,12S,15R,16E,18R,19R,21R,23S,24E,26E,28E,32S,35R)-1,18-dihydroxy-19-methoxy-12-[(1R)-2-[(1S,3R,4R)-3-methoxy-4-(2-methoxyethoxy)cyclohexyl]-1-methyl-ethyl]-15,17,21,23,29,35-hexamethyl-30-(pyrazin-2-ylmethoxy)-11,36-dioxa-4-azatricyclo[30.3.1.0^4,9]hexatriaconta-16,24,26,28-tetraene-2,3,10,14,20-pentone] had an IC50 of under 1 nM.

Turning to `CO[C@@H]1/C(C)=C/[C@@H](C)C(=O)C[C@@H]([C@H](C)C[C@@H]2CC[C@@H](OP(C)(C)=O)[C@H](OC)C2)OC(=O)[C@@H]2CCCCN2C(=O)C(=O)[C@]2(O)O[C@@H](CC[C@H]2C)CC(OCCOCCOC2COC2)/C(C)=C/C=C/C=C/[C@@H](C)C[C@@H](C)C(=O)[C@@H]1OC` (stereo partly drawn) [I-73, (1R,9S,12S,15R,16E,18R,19R,21R,23S,24E,26E,28E,32S,35R)-12-[(1R)-2-[(1S,3R,4R)-4-dimethylphosphoryloxy-3-methoxy-cyclohexyl]-1-methyl-ethyl]-1-hydroxy-18,19-dimethoxy-15,17,21,23,29,35-hexamethyl-30-[2-[2-(oxetan-3-yloxy)ethoxy]ethoxy]-11,36-dioxa-4-azatricyclo[30.3.1.04,9]hexatriaconta-16,24,26,28-tetraene-2,3,10,14,20-pentone], the IC50 is 10 to 100 nM. `CO[C@@H]1C[C@H](C[C@@H](C)[C@@H]2CC(=O)[C@H](C)/C=C(\C)[C@@H](O)[C@@H](OC)C(=O)[C@H](C)C[C@H](C)/C=C/C=C/C=C(\C)C(OCc3cnccn3)C[C@@H]3CC[C@@H](C)[C@@](O)(O3)C(=O)C(=O)N3CCCC[C@H]3C(=O)O2)CC[C@H]1OCCO` (stereo partly drawn) [I-67, (1R,9S,12S,15R,16E,18R,19R,21R,23S,24E,26E,28E,32S,35R)-1,18-dihydroxy-12-[(1R)-2-[(1S,3R,4R)-4-(2-hydroxyethoxy)-3-methoxy-cyclohexyl]-1-methyl-ethyl]-19-methoxy-15,17,21,23,29,35-hexamethyl-30-(pyrazin-2-ylmethoxy)-11,36-dioxa-4-azatricyclo[30.3.1.0^4,9]hexatriaconta-16,24,26,28-tetraene-2,3,10,14,20-pentone] registered an IC50 of under 1 nM. As to `COCCO[C@@H]1CC[C@@H](C[C@@H](C)[C@@H]2CC(=O)[C@H](C)/C=C(\C)[C@@H](O)[C@@H](OC)C(=O)[C@H](C)C[C@H](C)/C=C/C=C/C=C(\C)[C@H](OC[C@@H]3COCCO3)C[C@@H]3CC[C@@H](C)[C@@](O)(O3)C(=O)C(=O)N3CCCC[C@H]3C(=O)O2)C[C@H]1OC` [I-65, (1R,9S,12S,15R,16E,18R,19R,21R,23S,24E,26E,28E,30R,32S,35R)-30-[[(2S)-1,4-dioxan-2-yl]methoxy]-1,18-dihydroxy-19-methoxy-12-[(1R)-2-[(1S,3R,4R)-3-methoxy-4-(2-methoxyethoxy)cyclohexyl]-1-methyl-ethyl]-15,17,21,23,29,35-hexamethyl-11,36-dioxa-4-azatricyclo[30.3.1.0^4,9]hexatriaconta-16,24,26,28-tetraene-2,3,10,14,20-pentone], the IC50 lay within 1 to 10 nM.

The test system of a further test is p-Akt 1/2/3 (Ser473) in MCF-7 cells. The test is described as follows: AlphaLISA Ultra pAKT assay. Conditions: Homo sapiens, 1.5 h; MCF7 cells, 90 min. The class given is cell-based. The protocol: Example 56: AlphaLISA Ultra pAKT Assay
as §1, with “1.” for “1. Seed”, “16,000˜20,000” for “12,000˜16,000”, “90 minutes.” for “2 hours.”, “Incubate for 90 minutes. • 4.” left out
Compound `CO[C@@H]1/C(C)=C/[C@@H](C)C(=O)C[C@@H]([C@H](C)C[C@@H]2CC[C@@H](OP(C)(C)=O)[C@H](OC)C2)OC(=O)[C@@H]2CCCCN2C(=O)C(=O)[C@]2(O)O[C@@H](CC[C@H]2C)CC(OCC2COCCO2)/C(C)=C/C=C/C=C/[C@@H](C)C[C@@H](C)C(=O)[C@@H]1OC` (stereo partly drawn) [I-24, (1R,2R,4S)-4-((2R)-2-((3S,6R,7E,9R,10R,12R,14S,15E,17E,19E,23S,26R,27R,34aS)-21-((1,4-dioxan-2-yl)methoxy)-27-hydroxy-9,10-dimethoxy-6,8,12,14,20,26-hexamethyl-1,5,11,28,29-pentaoxo-1,4,5,6,9,10,11,12,13,14,21,22,23,24,25,26,27,28,29,31,32,33,34,34a-tetracosahydro-3H-23,27-epoxypyrido[2,1-c][1]oxa[4]azacyclohentriacontin-3-yl)propyl)-2-methoxycyclohexyl dimethylphosphinate] returned an IC50 of at least 1000 nM. Still for that read-out and setting: then `CO[C@@H]1/C(C)=C/[C@@H](C)C(=O)C[C@@H]([C@H](C)C[C@@H]2CC[C@@H](OCCO)[C@H](OC)C2)OC(=O)[C@@H]2CCCCN2C(=O)C(=O)[C@]2(O)O[C@@H](CC[C@H]2C)CC(OCCOC2COC2)/C(C)=C/C=C/C=C/[C@@H](C)C[C@@H](C)C(=O)[C@@H]1OC` (stereo partly drawn) [I-87, (3S,6R,7E,9R,10R,12R,14S,15E,17E,19E,23S,26R,27R,34aS)-27-hydroxy-3-((R)-1-((1S,3R,4R)-4-(2-hydroxyethoxy)-3-methoxycyclohexyl)propan-2-yl)-9,10-dimethoxy-6,8,12,14,20,26-hexamethyl-21-(2-(oxetan-3-yloxy)ethoxy)-9,10,12,13,14,21,22,23,24,25,26,27,32,33,34,34a-hexadecahydro-3H-23,27-epoxypyrido[2,1-c][1]oxa[4]azacyclohentriacontine-1,5,11,28,29(4H,6H,31H)-pentaone], with at least 1000 nM.
